Data published in ChEMBL document CHEMBL4265942, “Four new antitumor metabolites isolated from a mutant 3-f-31 strain derived from Penicillium purpurogenum G59” (Eur J Med Chem, 2018).
Structures can show the parent of a compound that is named as a salt. The source made the active and inactive calls. The rule behind the calls is not given here.

Tests used:
[1] = test system: HCT-116; experiment: Antitumor activity against human HCT116 cells xenografted in BALB/c nu/nu mouse assessed as tumor growth inhibition at 5 mg/kg, iv administered every other day for 14 days measured 24 hrs post last dose relative to control; format: functional; conditions: HCT-116, iv, read-out: TGI
[2] = test system: Mus musculus; experiment: Toxicity in BALB/c nu/nu mouse xenografted with human HCT116 cells assessed as spleen index at 5 mg/kg, iv administered every other day for 14 days measured 24 hrs post last dose (reference value: 0.41 +/- 0.08%); format: organism-based; conditions: in vivo
[3] = test system: K562; experiment: Antiproliferative activity against human K562 cells assessed as inhibition of cell growth after 72 hrs by MTT assay; format: functional, cell-based; conditions: K562, 72 h
[4] = test system: HCT-116; experiment: Antiproliferative activity against human HCT116 cells assessed as inhibition of cell growth after 72 hrs by sulforhodamine B assay; format: functional, cell-based; conditions: HCT-116, 72 h
[5] = test system: HT-29; experiment: Antiproliferative activity against human HT-29 cells assessed as inhibition of cell growth after 72 hrs by sulforhodamine B assay; format: functional, cell-based; conditions: HT-29, 72 h
[6] = test system: HeLa; experiment: Antiproliferative activity against human HeLa cells assessed as inhibition of cell growth after 72 hrs by sulforhodamine B assay; format: functional, cell-based
[7] = test system: L929; experiment: Cytotoxicity against mouse L929 cells assessed as inhibition of cell growth after 72 hrs by MTT assay; format: cell-based; conditions: L929, 72 h
[8] = test system: NCI-H1975; experiment: Antiproliferative activity against human NCI-H1975 cells assessed as inhibition of cell growth after 72 hrs by sulforhodamine B assay; format: functional, cell-based; conditions: NCI-H1975, 72 h
[9] = test system: MCF7; experiment: Antiproliferative activity against human MCF7 cells assessed as inhibition of cell growth after 72 hrs by sulforhodamine B assay; format: functional, cell-based; conditions: MCF7, 72 h
[10] = test system: A549; experiment: Antiproliferative activity against human A549 cells assessed as inhibition of cell growth after 72 hrs by sulforhodamine B assay; format: functional, cell-based; conditions: A549, 72 h
[11] = test system: PANC-1; experiment: Antiproliferative activity against human PANC1 cells assessed as inhibition of cell growth after 72 hrs by sulforhodamine B assay; format: functional, cell-based; conditions: PANC-1, 72 h
[12] = test system: HL-60; experiment: Antiproliferative activity against human HL60 cells assessed as inhibition of cell growth after 72 hrs by MTT assay; format: functional, cell-based; conditions: HL-60, 72 h
[13] = test system: LS180; experiment: Antiproliferative activity against human LS180 cells assessed as inhibition of cell growth after 72 hrs by sulforhodamine B assay; format: functional, cell-based; conditions: LS180, 72 h
[14] = test system: HepG2; experiment: Antiproliferative activity against human HepG2 cells assessed as inhibition of cell growth after 72 hrs by sulforhodamine B assay; format: functional, cell-based; conditions: HepG2, 72 h
[15] = test system: PC-3; experiment: Antiproliferative activity against human PC3 cells assessed as inhibition of cell growth after 72 hrs by sulforhodamine B assay; format: functional, cell-based; conditions: PC-3, 72 h
[16] = test system: SW480; experiment: Antiproliferative activity against human SW480 cells assessed as inhibition of cell growth after 72 hrs by sulforhodamine B assay; format: functional, cell-based; conditions: SW480, 72 h
[17] = test system: BXPC-3; experiment: Antiproliferative activity against human BxPC3 cells assessed as inhibition of cell growth after 72 hrs by sulforhodamine B assay; format: functional, cell-based; conditions: BXPC-3, 72 h
[18] = test system: HCT-116; experiment: Antiproliferative activity against human HCT116 cells assessed as inhibition of cell growth at 1 uM after 72 hrs by sulforhodamine B assay relative to control; format: functional; conditions: HCT-116, 72 h
[19] = test system: SW480; experiment: Antiproliferative activity against human SW480 cells assessed as inhibition of cell growth at 1 uM after 72 hrs by sulforhodamine B assay relative to control; format: functional; conditions: SW480, 72 h
[20] = test system: PC-3; experiment: Antiproliferative activity against human PC3 cells assessed as inhibition of cell growth at 1 uM after 72 hrs by sulforhodamine B assay relative to control; format: functional; conditions: PC-3, 72 h
[21] = test system: HL-60; experiment: Antiproliferative activity against human HL60 cells assessed as inhibition of cell growth at 1 uM after 72 hrs by MTT assay relative to control; format: functional; conditions: HL-60, 72 h
[22] = test system: HeLa; experiment: Antiproliferative activity against human HeLa cells assessed as inhibition of cell growth at 1 uM after 72 hrs by sulforhodamine B assay relative to control; format: functional
[23] = test system: PANC-1; experiment: Antiproliferative activity against human PANC1 cells assessed as inhibition of cell growth at 1 uM after 72 hrs by sulforhodamine B assay relative to control; format: functional; conditions: PANC-1, 72 h
[24] = test system: A549; experiment: Antiproliferative activity against human A549 cells assessed as inhibition of cell growth at 1 uM after 72 hrs by sulforhodamine B assay relative to control; format: functional; conditions: A549, 72 h
[25] = test system: HT-29; experiment: Antiproliferative activity against human HT-29 cells assessed as inhibition of cell growth at 1 uM after 72 hrs by sulforhodamine B assay relative to control; format: functional; conditions: HT-29, 72 h
[26] = test system: LS180; experiment: Antiproliferative activity against human LS180 cells assessed as inhibition of cell growth at 1 uM after 72 hrs by sulforhodamine B assay relative to control; format: functional; conditions: LS180, 72 h
[27] = test system: MCF7; experiment: Antiproliferative activity against human MCF7 cells assessed as inhibition of cell growth at 1 uM after 72 hrs by sulforhodamine B assay relative to control; format: functional; conditions: MCF7, 72 h
[28] = test system: BXPC-3; experiment: Antiproliferative activity against human BxPC3 cells assessed as inhibition of cell growth at 1 uM after 72 hrs by sulforhodamine B assay relative to control; format: functional; conditions: BXPC-3, 72 h
[29] = test system: HepG2; experiment: Antiproliferative activity against human HepG2 cells assessed as inhibition of cell growth at 1 uM after 72 hrs by sulforhodamine B assay relative to control; format: functional; conditions: HepG2, 72 h
[30] = test system: K562; experiment: Antiproliferative activity against human K562 cells assessed as inhibition of cell growth at 1 uM after 72 hrs by MTT assay relative to control; format: functional; conditions: K562, 72 h
[31] = test system: NCI-H1975; experiment: Antiproliferative activity against human NCI-H1975 cells assessed as inhibition of cell growth at 1 uM after 72 hrs by sulforhodamine B assay relative to control; format: functional; conditions: NCI-H1975, 72 h
[32] = test system: HCT-116; experiment: Down regulation of survivin expression in human HCT116 cells at 12.5 ug/ml after 48 hrs by Western blot analysis; format: functional, cell-based
[33] = test system: HCT-116; experiment: Upregulation of p53 expression in human HCT116 cells at 12.5 ug/ml after 48 hrs by Western blot analysis; format: functional, cell-based

`CC(=O)O[C@@]12CO[C@@H]1C[C@H](O)[C@@]1(C)C(=O)[C@H](O)C3=C(C)[C@@H](OC(=O)[C@H](O)[C@@H](NC(=O)OC(C)(C)C)c4ccccc4)C[C@@](O)([C@@H](OC(=O)c4ccccc4)[C@H]21)C3(C)C` [DOCETAXEL ANHYDROUS] gave an inhibition in vivo at 5 mg/kg [1] of 87.4% and an Activity_index [2] of 0.25.
`CCCCCC[C@@H](C)C[C@@H](C)/C=C/C(=O)N[C@H]1C[C@@]2(O[C@@H]1OC)[C@@H]1O[C@@H]1[C@](O)(CC(C)=O)[C@@H]1O[C@@H]12` showed an IC50 [3] of 6.46 µM, an IC50 [4] of 2610 nM and an IC50 [5] of 9.85 µM. For the same compound, the IC50 [6] was 8.65 µM, the IC50 [7] was 3.69 µM and the IC50 [8] was 4.77 µM. For the same compound, the IC50 [9] was 4.06 µM, the IC50 [10] was 14.8 µM and the IC50 [11] was 5.77 µM. It also gave an IC50 [12] of 10.8 µM, an IC50 [13] of 13.9 µM and an IC50 [14] of 9.58 µM. The IC50 [15] was 6.33 µM, the IC50 [16] was 3.85 µM and the IC50 [17] was 10.5 µM.
`COc1cccc2c1C(=O)c1c(O)c3c(c(O)c1C2=O)C[C@@](O)(C(=O)CO)C[C@@H]3O[C@H]1C[C@H](N)[C@H](O)[C@H](C)O1` [DOXORUBICIN HYDROCHLORIDE] showed an inhibition at 1 µM [18] of 70 to 98%, an inhibition at 1 µM [19] of 70 to 98% and an inhibition at 1 µM [20] of 70 to 98%. For the same compound, the inhibition at 1 µM [21] was 70 to 98%, the inhibition at 1 µM [22] was 70 to 98% and the inhibition at 1 µM [23] was 70 to 98%. The inhibition at 1 µM [24] was 70 to 98%, the inhibition at 1 µM [25] was 70 to 98% and the inhibition at 1 µM [26] was 70 to 98%. The inhibition at 1 µM [27] was 70 to 98%, the inhibition at 1 µM [28] was 70 to 98% and the inhibition at 1 µM [29] was 70 to 98%. It also gave an inhibition at 1 µM [30] of 70 to 98% and an inhibition at 1 µM [31] of 70 to 98%.
For `COc1cc([C@@H]2c3cc4c(cc3[C@@H](O[C@@H]3O[C@@H]5CO[C@@H](C)O[C@H]5[C@H](O)[C@H]3O)[C@H]3COC(=O)[C@H]23)OCO4)cc(OC)c1O`, the Activity [32] was “Active” and the Activity [33] was “Active”.
